Assay results: BindingDB's records for doi:10.1016/S0960-894X(97)00083-8 (1997)

Molecular target: Integrin alpha-IIb/beta-3 (Homo sapiens, UniProt P08514+P05106)
Assay: ChEBML_215984

Integrin alpha-IIb/beta-3, sequence (P05106 27-788 limits assumed): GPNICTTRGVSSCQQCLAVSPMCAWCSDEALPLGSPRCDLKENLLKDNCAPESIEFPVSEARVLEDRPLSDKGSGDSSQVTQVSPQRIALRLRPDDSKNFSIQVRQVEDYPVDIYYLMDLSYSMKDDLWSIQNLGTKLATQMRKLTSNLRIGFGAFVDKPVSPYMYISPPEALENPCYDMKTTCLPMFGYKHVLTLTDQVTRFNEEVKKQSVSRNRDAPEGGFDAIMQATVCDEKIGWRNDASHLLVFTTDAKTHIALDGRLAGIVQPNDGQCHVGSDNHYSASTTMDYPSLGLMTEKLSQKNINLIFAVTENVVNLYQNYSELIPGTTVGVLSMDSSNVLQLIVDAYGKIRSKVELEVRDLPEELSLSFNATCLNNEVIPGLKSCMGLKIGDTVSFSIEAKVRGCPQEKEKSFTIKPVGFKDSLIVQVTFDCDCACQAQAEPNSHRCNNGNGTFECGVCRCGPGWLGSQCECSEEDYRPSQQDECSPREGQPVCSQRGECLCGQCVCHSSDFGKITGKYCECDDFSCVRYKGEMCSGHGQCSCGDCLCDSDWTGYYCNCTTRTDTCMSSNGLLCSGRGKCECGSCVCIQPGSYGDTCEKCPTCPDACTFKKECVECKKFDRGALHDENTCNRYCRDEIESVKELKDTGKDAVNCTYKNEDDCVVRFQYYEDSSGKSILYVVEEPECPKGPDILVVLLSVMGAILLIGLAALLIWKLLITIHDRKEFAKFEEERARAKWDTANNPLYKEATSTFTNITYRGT
Integrin alpha-IIb/beta-3, sequence (P08514 32-887 limits assumed): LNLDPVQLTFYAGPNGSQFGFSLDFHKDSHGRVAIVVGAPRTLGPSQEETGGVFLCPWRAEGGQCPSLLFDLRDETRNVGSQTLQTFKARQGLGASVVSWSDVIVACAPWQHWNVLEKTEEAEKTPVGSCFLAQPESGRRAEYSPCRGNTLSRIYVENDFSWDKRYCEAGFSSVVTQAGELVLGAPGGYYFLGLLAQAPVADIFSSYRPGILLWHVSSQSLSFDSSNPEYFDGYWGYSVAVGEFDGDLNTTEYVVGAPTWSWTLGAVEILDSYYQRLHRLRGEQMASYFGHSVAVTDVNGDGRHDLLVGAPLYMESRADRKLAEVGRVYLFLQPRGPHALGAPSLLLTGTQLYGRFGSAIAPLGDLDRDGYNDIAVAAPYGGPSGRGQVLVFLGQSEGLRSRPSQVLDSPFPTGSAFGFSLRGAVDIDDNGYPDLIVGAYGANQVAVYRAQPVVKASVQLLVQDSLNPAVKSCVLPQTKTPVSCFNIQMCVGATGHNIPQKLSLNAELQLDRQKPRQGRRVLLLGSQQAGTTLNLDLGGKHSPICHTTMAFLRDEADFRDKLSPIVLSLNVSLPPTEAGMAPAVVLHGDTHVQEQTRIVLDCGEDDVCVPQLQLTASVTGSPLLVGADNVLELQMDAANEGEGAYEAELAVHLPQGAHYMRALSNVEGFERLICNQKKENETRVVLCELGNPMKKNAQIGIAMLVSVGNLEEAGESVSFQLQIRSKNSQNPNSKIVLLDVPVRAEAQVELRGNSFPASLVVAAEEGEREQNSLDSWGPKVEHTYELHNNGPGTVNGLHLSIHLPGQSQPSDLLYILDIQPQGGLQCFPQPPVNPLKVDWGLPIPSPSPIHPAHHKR
Integrin alpha-IIb/beta-3, sequence (P08514 891-1039 limits assumed): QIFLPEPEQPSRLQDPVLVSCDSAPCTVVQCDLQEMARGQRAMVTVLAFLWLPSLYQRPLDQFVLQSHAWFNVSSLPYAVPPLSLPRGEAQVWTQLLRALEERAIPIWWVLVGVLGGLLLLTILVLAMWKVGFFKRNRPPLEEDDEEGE

Q: For `CC(C)C1CN(C)C(CCCN=C(N)NC(=O)c2ccc(N=[N][Tc]345(=[P@SP2](c6ccc([S@TB1](=O)(=O)O)cc6)(c6ccccc6S(=O)(=O)O)c6ccccc6[S@TB1](=O)(=O)O)[O]CC[N]3C(CO)(C[O]4)C[O]5)nc2)C(=O)NCC(=O)NC(CC(=O)O)C(=O)NCc2cc(NC(=O)CCCCCN)cc(c2)C(=O)N1` (stereo unspecified) [RP-444], which IC50 is on record?
A: Its IC50 is 13 nM.
